Source: ChEMBL document CHEMBL1201862, “PubChem BioAssay data set” (2004)
Activity calls are given as the source filed them.

Columns and labels:
[1] = biological target: Phosphorylase b kinase gamma catalytic chain, liver/testis isoform (Homo sapiens, UniProt P15735); assay type: functional;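 also: PHKG2 measured as one member of a kinome-wide kinase panel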
[2] = biological target: Serine/threonine-protein kinase pim-3 (Homo sapiens, UniProt Q86V86); assay type: functional;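 also: value obtained as one member of a broad kinase panel profiling effort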
Cytochrome P450 2C19 = Cytochrome P450 2C19 (Homo sapiens, UniProt P33261); experiment: Cytochrome panel assay with activity outcomes. Panel member name: p450-cyp2c19 Compounds with AC50 equal or less than 10 uM are considered active; assay type: functional; details: read-out: AC50
[3] = biological target: DNA dC->dU-editing enzyme APOBEC-3G (Homo sapiens, UniProt Q9HC16); experiment: APOBEC3G deaminase inhibitors, SAR follow-up, biochemical, fluorescence, single-stranded DNA substrate (AID 602136); assay type: functional; details: read-out: IC50_Mean
[4] = biological target: DNA dC->dU-editing enzyme APOBEC-3A (Homo sapiens, UniProt P31941); experiment: SAR analysis of small molecule inhibitors of APOBEC3A DNA Deaminase via a fluorescence-based single-stranded DNA deaminase assay.; assay type: functional; details: read-out: IC50_Mean
Sequence of DNA dC->dU-editing enzyme APOBEC-3A (P31941 whole entry): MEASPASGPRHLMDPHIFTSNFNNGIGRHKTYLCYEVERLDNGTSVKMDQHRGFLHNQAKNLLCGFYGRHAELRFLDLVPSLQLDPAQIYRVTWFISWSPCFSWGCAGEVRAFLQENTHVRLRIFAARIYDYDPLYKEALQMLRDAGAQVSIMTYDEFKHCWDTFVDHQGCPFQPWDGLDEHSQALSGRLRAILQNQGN

Cytochrome P450 2C9 = Cytochrome P450 2C9 (Homo sapiens, UniProt P11712)
Sequence of Cytochrome P450 2C9 (P11712 whole entry): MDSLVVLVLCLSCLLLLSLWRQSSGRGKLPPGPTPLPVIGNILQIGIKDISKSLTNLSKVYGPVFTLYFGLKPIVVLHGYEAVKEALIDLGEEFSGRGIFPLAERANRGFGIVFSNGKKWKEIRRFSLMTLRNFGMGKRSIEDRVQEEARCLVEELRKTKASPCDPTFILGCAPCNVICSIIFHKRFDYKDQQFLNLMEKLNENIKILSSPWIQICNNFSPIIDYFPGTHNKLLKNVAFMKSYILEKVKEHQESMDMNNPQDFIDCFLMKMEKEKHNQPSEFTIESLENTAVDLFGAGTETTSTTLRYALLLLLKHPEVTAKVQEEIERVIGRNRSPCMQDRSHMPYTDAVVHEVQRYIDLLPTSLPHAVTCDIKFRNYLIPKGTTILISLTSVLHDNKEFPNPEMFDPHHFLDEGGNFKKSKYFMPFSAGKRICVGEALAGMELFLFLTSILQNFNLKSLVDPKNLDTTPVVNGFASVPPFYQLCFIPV

[5] = biological target: Rho-associated protein kinase 1 (Homo sapiens, UniProt Q13464); assay type: functional;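 also: measured within a broad kinome-wide panel profiling many kinases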
Aurora kinase B = Aurora kinase B (Homo sapiens, UniProt Q96GD4); assay type: functional
Sequence of Aurora kinase B (Q96GD4 whole entry): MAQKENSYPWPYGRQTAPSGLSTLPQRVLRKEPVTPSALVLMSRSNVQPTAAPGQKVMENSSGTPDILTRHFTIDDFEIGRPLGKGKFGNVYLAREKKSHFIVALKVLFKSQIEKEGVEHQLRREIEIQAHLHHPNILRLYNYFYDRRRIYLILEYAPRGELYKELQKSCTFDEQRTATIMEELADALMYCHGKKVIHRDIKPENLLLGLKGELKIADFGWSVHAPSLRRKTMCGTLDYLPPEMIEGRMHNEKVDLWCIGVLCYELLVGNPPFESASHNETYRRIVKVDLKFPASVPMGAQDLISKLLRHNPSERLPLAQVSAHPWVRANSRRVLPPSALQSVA

[6] = biological target: Tyrosine-protein kinase Lck (Homo sapiens, UniProt P06239); assay type: functional;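 also: lck was assayed as one member of a kinase panel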
[7] = biological target: High affinity nerve growth factor receptor (Homo sapiens, UniProt P04629); assay type: functional;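 also: NTRK1 tested as one member of a kinome-wide profiling panel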
[8] = biological target: Cyclin-dependent kinase 8 (Homo sapiens, UniProt P49336); experiment: Navigating the Kinome. Panel member name: CDK8; assay type: functional
[9] = biological target: Calcium/calmodulin-dependent protein kinase type II subunit alpha (Homo sapiens, UniProt Q9UQM7); experiment: Navigating the Kinome. Panel member name: CAMK2A; assay type: functional
[10] = biological target: Tyrosine-protein kinase Fyn (Homo sapiens, UniProt P06241); assay type: functional
[11] = biological target: BDNF/NT-3 growth factors receptor (Homo sapiens, UniProt Q16620); assay type: functional;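 also: NTRK2 measured as one member of a broad kinome-wide kinase profiling panel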
Sequence of BDNF/NT-3 growth factors receptor (Q16620 whole entry): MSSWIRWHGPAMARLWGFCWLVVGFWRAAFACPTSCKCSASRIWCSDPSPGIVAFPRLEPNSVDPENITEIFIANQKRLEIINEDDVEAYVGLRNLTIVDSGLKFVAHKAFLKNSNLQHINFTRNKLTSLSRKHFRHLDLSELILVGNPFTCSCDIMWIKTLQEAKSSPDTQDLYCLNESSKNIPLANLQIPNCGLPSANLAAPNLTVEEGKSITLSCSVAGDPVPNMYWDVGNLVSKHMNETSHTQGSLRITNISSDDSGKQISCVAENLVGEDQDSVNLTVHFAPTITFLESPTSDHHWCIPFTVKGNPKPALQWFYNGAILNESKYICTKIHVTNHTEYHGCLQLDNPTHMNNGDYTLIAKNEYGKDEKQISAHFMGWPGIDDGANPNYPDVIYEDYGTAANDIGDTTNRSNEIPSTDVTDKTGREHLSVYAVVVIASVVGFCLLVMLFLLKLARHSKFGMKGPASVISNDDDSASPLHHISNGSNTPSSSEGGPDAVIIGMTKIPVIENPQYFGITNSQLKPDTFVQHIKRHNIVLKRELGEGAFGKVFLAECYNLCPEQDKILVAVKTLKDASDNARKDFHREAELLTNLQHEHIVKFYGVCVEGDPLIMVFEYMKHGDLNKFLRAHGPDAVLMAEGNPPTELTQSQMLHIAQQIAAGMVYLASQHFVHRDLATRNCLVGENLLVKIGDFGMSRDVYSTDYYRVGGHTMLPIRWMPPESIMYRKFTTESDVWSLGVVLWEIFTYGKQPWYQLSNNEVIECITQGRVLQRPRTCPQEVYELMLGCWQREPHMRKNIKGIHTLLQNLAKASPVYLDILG

[12] = biological target: Hepatocyte growth factor receptor (Homo sapiens, UniProt P08581); assay type: functional;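 also: kinase panel profiling across the kinome, with MET as the panel member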
Sequence of Hepatocyte growth factor receptor (P08581 whole entry): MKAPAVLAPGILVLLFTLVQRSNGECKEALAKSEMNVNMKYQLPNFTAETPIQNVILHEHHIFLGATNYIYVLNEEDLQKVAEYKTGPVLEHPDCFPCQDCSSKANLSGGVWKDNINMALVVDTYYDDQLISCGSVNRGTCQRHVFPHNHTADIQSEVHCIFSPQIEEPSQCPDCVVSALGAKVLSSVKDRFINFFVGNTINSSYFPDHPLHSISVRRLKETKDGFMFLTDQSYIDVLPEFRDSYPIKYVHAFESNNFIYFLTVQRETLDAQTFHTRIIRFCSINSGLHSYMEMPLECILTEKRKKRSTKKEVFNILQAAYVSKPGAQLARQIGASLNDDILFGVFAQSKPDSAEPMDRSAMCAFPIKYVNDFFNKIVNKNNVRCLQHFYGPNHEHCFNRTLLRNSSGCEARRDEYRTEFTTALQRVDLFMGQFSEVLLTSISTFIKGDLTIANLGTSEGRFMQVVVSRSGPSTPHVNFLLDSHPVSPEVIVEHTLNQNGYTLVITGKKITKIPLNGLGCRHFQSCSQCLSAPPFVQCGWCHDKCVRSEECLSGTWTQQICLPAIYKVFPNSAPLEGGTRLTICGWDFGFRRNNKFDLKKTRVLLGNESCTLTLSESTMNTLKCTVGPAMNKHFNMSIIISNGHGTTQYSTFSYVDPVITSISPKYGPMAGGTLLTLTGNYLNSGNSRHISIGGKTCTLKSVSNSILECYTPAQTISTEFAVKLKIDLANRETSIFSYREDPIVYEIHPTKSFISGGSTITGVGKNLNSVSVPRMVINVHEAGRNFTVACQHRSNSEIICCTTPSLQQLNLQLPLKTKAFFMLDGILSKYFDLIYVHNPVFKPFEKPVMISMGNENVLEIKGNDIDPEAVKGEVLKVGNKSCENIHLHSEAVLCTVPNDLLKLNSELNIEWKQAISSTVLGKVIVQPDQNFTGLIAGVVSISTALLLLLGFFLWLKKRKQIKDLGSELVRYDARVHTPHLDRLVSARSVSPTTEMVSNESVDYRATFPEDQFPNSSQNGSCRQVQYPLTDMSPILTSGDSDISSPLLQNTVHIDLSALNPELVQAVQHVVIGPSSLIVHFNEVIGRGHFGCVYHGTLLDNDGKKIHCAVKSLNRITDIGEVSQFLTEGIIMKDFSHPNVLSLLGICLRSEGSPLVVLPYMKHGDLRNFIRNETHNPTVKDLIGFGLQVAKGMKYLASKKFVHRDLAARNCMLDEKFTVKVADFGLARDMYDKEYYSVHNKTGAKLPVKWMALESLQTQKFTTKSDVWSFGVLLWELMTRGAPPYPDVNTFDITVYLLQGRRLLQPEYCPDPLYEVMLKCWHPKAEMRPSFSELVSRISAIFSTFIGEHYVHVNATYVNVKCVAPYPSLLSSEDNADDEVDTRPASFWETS

[13] = biological target: ALK tyrosine kinase receptor (Homo sapiens, UniProt Q9UM73); assay type: functional;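 also: ALK tested as one member of a kinase panel screen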
[14] = biological target: Dual specificity protein kinase CLK4 (Homo sapiens, UniProt Q9HAZ1); assay type: functional
Sequence of Dual specificity protein kinase CLK4 (Q9HAZ1 whole entry): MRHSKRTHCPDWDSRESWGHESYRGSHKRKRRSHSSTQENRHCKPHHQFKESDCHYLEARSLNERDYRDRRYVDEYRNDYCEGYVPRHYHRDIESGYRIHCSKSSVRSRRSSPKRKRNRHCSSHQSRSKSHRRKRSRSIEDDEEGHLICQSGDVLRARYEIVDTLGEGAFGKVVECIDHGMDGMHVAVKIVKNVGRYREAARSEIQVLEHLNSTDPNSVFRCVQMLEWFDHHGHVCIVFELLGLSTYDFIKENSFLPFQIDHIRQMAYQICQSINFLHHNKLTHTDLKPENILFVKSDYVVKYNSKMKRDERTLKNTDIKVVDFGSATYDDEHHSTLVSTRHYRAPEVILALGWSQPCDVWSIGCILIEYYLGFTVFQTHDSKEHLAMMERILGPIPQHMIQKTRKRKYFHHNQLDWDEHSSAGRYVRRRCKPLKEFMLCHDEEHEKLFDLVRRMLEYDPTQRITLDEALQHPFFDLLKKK

[15] = biological target: Serine/threonine-protein kinase TAO1 (Homo sapiens, UniProt Q7L7X3); assay type: functional
Sequence of Serine/threonine-protein kinase TAO1 (Q7L7X3 whole entry): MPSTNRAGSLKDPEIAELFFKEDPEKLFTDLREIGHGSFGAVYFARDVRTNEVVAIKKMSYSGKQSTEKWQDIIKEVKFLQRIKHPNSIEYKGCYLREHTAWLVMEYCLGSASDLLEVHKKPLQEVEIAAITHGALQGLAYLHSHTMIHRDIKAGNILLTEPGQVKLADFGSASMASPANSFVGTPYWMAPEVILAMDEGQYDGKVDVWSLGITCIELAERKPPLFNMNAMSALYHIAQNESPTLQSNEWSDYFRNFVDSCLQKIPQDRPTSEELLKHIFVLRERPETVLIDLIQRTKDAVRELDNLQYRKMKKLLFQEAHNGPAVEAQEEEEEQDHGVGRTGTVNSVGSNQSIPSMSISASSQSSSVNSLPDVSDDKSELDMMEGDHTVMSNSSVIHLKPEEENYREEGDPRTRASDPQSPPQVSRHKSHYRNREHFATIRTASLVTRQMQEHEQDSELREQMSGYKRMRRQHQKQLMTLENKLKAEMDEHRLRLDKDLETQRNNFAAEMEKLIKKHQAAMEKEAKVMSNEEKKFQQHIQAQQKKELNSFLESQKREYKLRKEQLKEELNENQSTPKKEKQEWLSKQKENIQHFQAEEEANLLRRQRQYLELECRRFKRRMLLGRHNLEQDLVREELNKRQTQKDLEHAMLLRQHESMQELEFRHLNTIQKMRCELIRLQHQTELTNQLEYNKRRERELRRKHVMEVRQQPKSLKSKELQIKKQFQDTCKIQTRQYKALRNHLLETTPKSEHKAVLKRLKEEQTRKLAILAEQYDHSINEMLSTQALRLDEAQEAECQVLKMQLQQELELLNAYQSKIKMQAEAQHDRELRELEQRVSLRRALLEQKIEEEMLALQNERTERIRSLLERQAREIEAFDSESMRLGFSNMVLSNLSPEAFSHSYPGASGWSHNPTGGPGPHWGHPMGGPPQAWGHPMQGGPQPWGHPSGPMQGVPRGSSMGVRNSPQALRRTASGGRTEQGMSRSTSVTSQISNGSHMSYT

[16] = biological target: Sphingosine 1-phosphate receptor 2 (Homo sapiens, UniProt O95136); experiment: Late-stage fluorescence-based dose-response cell-based counterscreen assay to identify agonists of the Sphingosine 1-Phosphate Receptor 3 (S1P3): Sphingosine 1-Phosphate Receptor 2 (S1P2) agonist assay.; assay type: functional
[17] = biological target: Sphingosine 1-phosphate receptor 4 (Homo sapiens, UniProt O95977); experiment: Late-stage fluorescence-based dose-response cell-based counterscreen assay to identify agonists of the Sphingosine 1-Phosphate Receptor 3 (S1P3): Sphingosine 1-Phosphate Receptor 4 (S1P4) agonist assay.; assay type: functional
[18] = Luminescence Cell-Based Dose Confirmation to Identify Activators of 5'UTR Stem-Loop Driven Alpha-Synuclein mRNA Translation in H4 Neuroglioblastoma Cells. [Related pubchem assays: 1829 (Project Summary), 1814 (Primary HTS)]; assay type: functional
[19] = Luminescence Cell-Based Dose Response to Identify Activators of 5'UTR Stem-Loop Driven Prion Protein mRNA Translation in H4-C Neuroglioblastoma Cells. [Related pubchem assays: 1829 (Project Summary), 1814 (Primary HTS)]; assay type: functional
[20] = Luminescence Cell-Based Dose Response HTS to Identify Activators of Luciferase Translation or Activity in H4 […] Cells. [Related pubchem assays: 1829 (Project Summary), 1814 (Primary HTS)]; assay type: functional
[21] = biological target: Glycogen synthase kinase-3 alpha (Homo sapiens, UniProt P49840); experiment: Inhibition of Human GSK-3 alpha Activity Measured in Biochemical System Using Microfluidics - 2063-06_Inhibitor_Dose_DryPowder_Activity_Set2. [Related pubchem assays (depositor defined):AID2709]
[22] = Luminescence Cell-Based Dose Confirmation HTS to Identify Activators of 5'UTR Stem-Loop Driven Alpha-Synuclein mRNA Translation in H4 Neuroglioblastoma Cells. [Related pubchem assays: 1829 (Project Summary), 1814 (Primary HTS)]; assay type: functional
H4 = experiment: Luminescence Cell-Based Dose Response HTS to Identify Activators of 5'UTR Stem-Loop Driven Prion Protein mRNA Translation in H4 Neuroglioblastoma Cells. [Related pubchem assays: 1829 (Project Summary), 1814 (Primary HTS)]; assay type: functional; details: Homo sapiens
[23] = Luminescence Cell-Based Dose Response to Identify Activators of Luciferase Translation or Activity in H4-C Neuroglioblastoma Cells. [Related pubchem assays: 1829 (Project Summary), 1814 (Primary HTS)]; assay type: functional
[24] = biological target: Cyclin-dependent kinase 5/CDK5 activator 1 (Homo sapiens, UniProt Q00535); experiment: CDK5-p25 kinase inhibitors, specificity check, dose response, selectivity assay for GSK-3 alpha inhibitor project, biochemical, microfluidic mobility shift, dry powder (AID 588430)
[25] = biological target: Glycogen synthase kinase-3 beta (Homo sapiens, UniProt P49841); experiment: Inhibition of Human GSK-3 beta Activity Measured in Biochemical System Using Microfluidics - 2063-05_Inhibitor_Dose_DryPowder_Activity_Set2. [Related pubchem assays (depositor defined):AID2709]
HEK293 [26] = experiment: HEK cell cytotoxicity by LDH release, dose response, cytotoxicity control for IDE activator project, fluorescence, HEK cells (AID 588440); assay type: functional, cell-based; details: Homo sapiens;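 also: cytotoxicity by LDH release measuring loss of membrane integrity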
Insulin-degrading enzyme [27] = biological target: T1, Insulin-degrading enzyme (Homo sapiens, UniProt P14735); experiment: activators of endogenous IDE in HEK cells, dose response, cell-based, fluorescence polarization (AID 588439); assay type: functional
T1 sequence (P14735 whole entry): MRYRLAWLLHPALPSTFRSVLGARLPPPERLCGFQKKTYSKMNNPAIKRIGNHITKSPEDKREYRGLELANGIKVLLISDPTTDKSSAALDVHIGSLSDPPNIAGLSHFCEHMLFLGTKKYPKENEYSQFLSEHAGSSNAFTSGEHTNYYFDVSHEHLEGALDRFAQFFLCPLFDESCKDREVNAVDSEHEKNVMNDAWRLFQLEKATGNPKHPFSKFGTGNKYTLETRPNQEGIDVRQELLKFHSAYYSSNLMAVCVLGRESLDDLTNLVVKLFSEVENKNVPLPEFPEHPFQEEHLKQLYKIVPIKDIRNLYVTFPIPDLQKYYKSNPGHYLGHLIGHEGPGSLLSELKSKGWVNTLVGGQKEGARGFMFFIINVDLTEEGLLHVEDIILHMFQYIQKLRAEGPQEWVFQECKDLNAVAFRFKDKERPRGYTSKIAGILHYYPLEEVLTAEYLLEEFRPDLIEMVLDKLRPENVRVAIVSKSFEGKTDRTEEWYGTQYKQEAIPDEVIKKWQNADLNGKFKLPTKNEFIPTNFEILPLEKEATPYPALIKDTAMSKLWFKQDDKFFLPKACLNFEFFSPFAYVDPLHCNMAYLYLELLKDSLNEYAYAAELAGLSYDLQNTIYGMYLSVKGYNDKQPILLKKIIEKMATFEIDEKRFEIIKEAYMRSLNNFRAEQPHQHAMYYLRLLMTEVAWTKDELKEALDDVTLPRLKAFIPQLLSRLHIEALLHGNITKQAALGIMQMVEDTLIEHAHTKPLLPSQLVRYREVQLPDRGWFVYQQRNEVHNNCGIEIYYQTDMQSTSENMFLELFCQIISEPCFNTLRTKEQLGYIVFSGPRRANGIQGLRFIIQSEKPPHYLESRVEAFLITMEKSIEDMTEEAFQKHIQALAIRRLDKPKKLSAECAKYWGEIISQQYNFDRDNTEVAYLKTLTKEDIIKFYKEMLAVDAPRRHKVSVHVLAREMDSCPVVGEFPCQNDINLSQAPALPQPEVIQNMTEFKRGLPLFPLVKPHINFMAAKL

HEK293 [28] = experiment: optical interference in Abeta FP readout, dose response, artefact control for IDE activator project, biochemical, fluorescence polarization (AID 588442); assay type: functional, cell-based; details: Homo sapiens
Insulin-degrading enzyme [29] = biological target: T1, Insulin-degrading enzyme; experiment: activators of recombinant IDE enzyme, dose response, counter-screen for IDE activator project, biochemical, fluorescence polarization (AID 588681)

With CCOC(=O)C1=c2sc(=Cc3cccs3)c(=O)n2C(N)=C(C#N)C1c1cccs1 (stereo not drawn) the Ki [1] was 5.01 µM (active) and the Ki [2] was 6.31 µM (active).

For CCCCSc1nnc(-c2cc3c(C(F)(F)F)nn(C)c3s2)n1C, the AC50 (Cytochrome P450 2C19) was 20 µM (inconclusive), the IC50 [3] was 51.6 µM (inactive) and the IC50 [4] was > 99 µM (inactive). The AC50 (Cytochrome P450 2C9) was “inconclusive”.

With Cc1cc(=O)[nH]nc1-c1ccc(NC(=O)Nc2cccc(Cl)c2)cc1 the Ki [5] was 2.51 µM (active), the Ki (Aurora kinase B) was 0.631 µM (active) and the Ki [6] was > 6.31 µM (inactive). For the same molecule, the Ki [7] was > 15.8 µM (inactive), the Ki [8] was 3.16 µM (active) and the Ki [9] was > 7.94 µM (inactive). The Ki [10] was > 6.31 µM (inactive), the Ki [11] was 1.58 µM (active) and the Ki [12] was 0.631 µM (active). The Ki [13] was > 6.31 µM (inactive), the Ki [14] was 2 µM (active) and the Ki [15] was > 6.31 µM (inactive).

For CC1CCCCC1N(C(=O)c1cc(C2CC2)on1)C1CCCCCC1 (stereo not drawn), the EC50 [16] was > 50 µM (inactive) and the EC50 [17] was > 50 µM (inactive).

For CCNc1nc(N)c(C(=O)c2ccc(Cl)s2)s1, the EC50 [18] was 0.238 µM (active), the EC50 [19] was 1.21 µM (active) and the EC50 [20] was 0.19 µM (active). For the same molecule, the AC50 [21] was < 0.0218 µM (active), the EC50 [22] was 0.233 µM (active) and the EC50 (H4) was > 120 µM (not active). For the same molecule, the EC50 [23] was > 12 µM (not active), the AC50 [24] was 0.516 µM (active) and the AC50 [25] was < 0.016 µM (active).

For COc1ccc(C2CC(C(F)(F)F)n3nc(C(=O)O)c(Cl)c3N2)cc1OC (stereo not drawn), the IC50 (HEK293 [26]) was > 89.2 µM (inactive), the EC50 (Insulin-degrading enzyme [27]) was > 54.7 µM (inactive) and the EC50 (HEK293 [28]) was > 54.7 µM (inactive). The EC50 (Insulin-degrading enzyme [29]) was 50.1 µM (inactive).
